Read-outs that look alike come from different tables or passages of the source.
Key:
[1] = test system: HCT 116 (PI3Kα H1047R); assay: pAKT (T308) ELISA assay, HCT 116; assay type: cell-based; conditions: Homo sapiens, PI3KαH1047R, IGF1, read-out: Cellular pAKT (T308) IC50 HCT 116
Procedure: (§1) In another embodiment, the pAKT ELISA Assay was performed by seeding cells onto 96-well plates (Corning, 3904) in their respective growth media at the densities listed in Table 3. Cells were incubated at 37° C., 5% CO2 for 48 h (except MDA-MB-453 cells which were cultured in the absence of CO2). Compounds were serially diluted in DMSO and subsequently diluted in serum-free DMEM. Test compounds were added to cells in serum-free DMEM at a final concentration of 0.3% DMSO and incubated for 3 h. Cells were lysed with 130 μL of ice-cold RIPA lysis buffer (50 mM Tris-HCl, pH 7.5; 0.5% sodium deoxycholic acid; 1% Triton X-100; 0.1% SDS; 150 mM NaCl) with protease and phosphatase inhibitors (1 mM EDTA, 1 mM NaF, 20 mM β-glycerophosphate, 1 mM Na-orthovanadate, Complete-Mini EDTA-free, Roche, 11836170001, and Phosphatase Inhibitor Cocktail I, Sigma, P2850), directly in 96-well plates. Cells were lysed on ice for 60-120 min at 4° C. The supernatants were added directly to capture ELISA plates previously pre-coated with rabbit anti-AKT capture antibody. […] The wells were measured for luminescence using a Wallac plate reader at wavelength of 560 nm. After normalization of pAKT signal to total AKT1 signal, IC50 values were determined relative to the DMSO-treated control.

[2] = molecular target: mTOR/GbL/Raptor (mTORC1) (Homo sapiens, UniProt P42345); assay: mTOR/GbL/Raptor (mTORC1) ELISA assay; assay type: biochemical
Procedure: The measurement of mTORC1 enzyme activity was performed in an ELISA assay format following the phosphorylation of 4E-BP1 protein. All experiments were performed in the 384-well format. Generally, 0.5 μL DMSO containing varying concentrations of the test compound was mixed with 15 μL enzyme solution. Kinase reactions were initiated with the addition of 15 μL of substrates-containing solution. The assay conditions were as follows; 0.2 nM mTORC1, 10 μM ATP and 50 nM NHis-tagged 4E-BP1 in 20 mM Hepes, pH 7.2, 1 mM DTT, 50 mM NaCl, 10 mM MnCl2, 0.02 mg/mL BSA, 0.01% CHAPS, 50 mM β-glycerophosphate. Following an incubation of 120 minutes at ambient temperature, 20 μL of the reaction volume was transferred to a Ni-Chelate-coated 384-well plate. The binding step of the 4E-BP1 protein proceeded for 60 minutes, followed by washing 4 times each with 50 μL of Tris-buffered saline solution (TBS). Anti-phospho-4E-BP1 rabbit-IgG (20 μL, 1:5000) in 5% BSA-TBST (0.2% Tween-20 in TBS) was added and further incubated for 60 minutes. Incubation with a secondary HRP-tagged anti-IgG was similarly performed after washing off the primary antibody (4 washes of 50 μL). Following the final wash step with TBST, 20 μL of SuperSignal ELISA Femto (Pierce Biotechnology) was added and the luminescence measured using an EnVision plate reader.

[3] = test system: SK-OV-3 (PI3Kα H1047R); assay: pAKT (T308) ELISA assay, SK-OV-3; assay type: cell-based; conditions: Homo sapiens, PI3KαH1047R, IGF1, read-out: Cellular pAKT (T308) IC50 SK-OV-3
Procedure: as §1

[4] = test system: PC3 (PTEN null) cellular model; assay: pAKT (T308) ELISA assay, PC3; assay type: cell-based; conditions: Homo sapiens; IGF1 stimulation
Procedure: Cells were incubated at 37° C., 5% CO2 for 48 h (except MDA-MB-453 cells which were cultured in the absence of CO2). Compounds were serially diluted in DMSO and subsequently diluted in serum-free DMEM. Test compounds were added to cells in serum-free DMEM at a final concentration of 0.3% DMSO and incubated for 3 h. Cells were lysed with 130 μL of ice-cold RIPA lysis buffer (50 mM Tris-HCl, pH 7.5; 0.5% sodium deoxycholic acid; 1% Triton X-100; 0.1% SDS; 150 mM NaCl) with protease and phosphatase inhibitors (1 mM EDTA, 1 mM NaF, 20 mM β-glycerophosphate, 1 mM Na-orthovanadate, Complete-Mini EDTA-free, Roche, 11836170001, and Phosphatase Inhibitor Cocktail I, Sigma, P2850), directly in 96-well plates. Cells were lysed on ice for 60-120 min at 4° C. The supernatants were added directly to capture ELISA plates previously pre-coated with rabbit anti-AKT capture antibody. ELISA assays for pAKT(T308) and total AKT were performed with the pAKT(T308) ELISA kit (Cell Signaling Technology, 7144) and AKT1 ELISA kit (Cell Signaling Technology, 7142). For the pAKT(T308) ELISA, 85 μL of cell lysate was added to each well. For the total AKT1 ELISA, 15 μL of cell lysate and 85 μL of Starting Block buffer (Pierce, 37543) were added to each well.

Cc1cc(C(C)Nc2ccccc2)c2nc(N3CCOCC3)cc(=O)n2c1 (centres unmarked) [TGX-221, 7-methyl-2-(4-morpholinyl)-9-[1-(phenylamino)ethyl]-4H-pyrido[1,2-a]pyrimidin-4-one]
IC50 [1]: 26.4 µM
IC50 ([2]; 4EBP1 as substrate for mTOR/GbL/raptor kinase, read-out: biochemical IC50 mTOR): 10.9 µM
IC50 ([2]; Table 5, read-out: Biochemical IC50 mTOR): 10.9 µM
IC50 [3]: > 30 µM
IC50 [4]: 11.2 µM
